Data published in ChEMBL document CHEMBL1151491 (Bioorg Med Chem Lett, 1995).

Tests used:
[1] = target: Muscarinic acetylcholine receptor M3 (Rattus norvegicus, UniProt P08483); assay: Inhibition of binding of [3H]N-methylscopolamine to muscarinic receptor (M3) in rat submaxillary gland homogenates
[2] = target: T1, Muscarinic acetylcholine receptor M2 (Rattus norvegicus, UniProt P10980); assay: Inhibition of binding of [3H]N-methylscopolamine to muscarinic receptor (M2) in rat heart homogenates; format: tissue-based
T1 sequence (P10980 whole entry): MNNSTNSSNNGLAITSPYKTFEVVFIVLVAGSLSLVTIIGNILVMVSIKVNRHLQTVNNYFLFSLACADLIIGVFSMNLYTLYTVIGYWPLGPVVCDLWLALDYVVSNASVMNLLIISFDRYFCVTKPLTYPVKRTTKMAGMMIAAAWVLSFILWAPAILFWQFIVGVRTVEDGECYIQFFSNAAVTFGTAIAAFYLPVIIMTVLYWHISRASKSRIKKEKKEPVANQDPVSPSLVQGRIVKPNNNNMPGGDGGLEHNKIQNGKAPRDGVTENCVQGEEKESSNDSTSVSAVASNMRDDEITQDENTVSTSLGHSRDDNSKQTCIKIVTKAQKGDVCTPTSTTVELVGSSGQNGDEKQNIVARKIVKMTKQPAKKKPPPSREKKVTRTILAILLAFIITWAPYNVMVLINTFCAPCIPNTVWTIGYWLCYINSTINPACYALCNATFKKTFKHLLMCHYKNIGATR

[3] = target: T2, Muscarinic acetylcholine receptor M4 (Rattus norvegicus, UniProt P08485); assay: Inhibition of binding of [3H]N-methylscopolamine to Muscarinic acetylcholine receptor M4 in NG 108-15 cell homogenates; format: cell-free
T2 sequence (P08485 whole entry): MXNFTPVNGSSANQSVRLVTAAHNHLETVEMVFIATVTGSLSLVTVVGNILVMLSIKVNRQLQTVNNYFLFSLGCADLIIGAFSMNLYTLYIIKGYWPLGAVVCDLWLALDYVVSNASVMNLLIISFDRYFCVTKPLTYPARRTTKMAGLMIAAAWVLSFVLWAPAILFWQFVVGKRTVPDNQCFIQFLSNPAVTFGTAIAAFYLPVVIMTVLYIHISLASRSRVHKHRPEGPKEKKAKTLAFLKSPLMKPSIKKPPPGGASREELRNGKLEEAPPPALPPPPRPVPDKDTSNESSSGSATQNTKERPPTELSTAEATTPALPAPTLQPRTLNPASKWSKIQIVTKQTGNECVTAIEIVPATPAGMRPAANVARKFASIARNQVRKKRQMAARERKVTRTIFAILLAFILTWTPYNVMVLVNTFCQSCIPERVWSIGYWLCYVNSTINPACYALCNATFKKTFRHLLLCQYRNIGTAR

[4] = target: T3, Muscarinic acetylcholine receptor M1 (Rattus norvegicus, UniProt P08482); assay: Inhibition of binding of [3H]pirenzepine to muscarinic receptor (M1) in rat cortex homogenates
T3 sequence (P08482 whole entry): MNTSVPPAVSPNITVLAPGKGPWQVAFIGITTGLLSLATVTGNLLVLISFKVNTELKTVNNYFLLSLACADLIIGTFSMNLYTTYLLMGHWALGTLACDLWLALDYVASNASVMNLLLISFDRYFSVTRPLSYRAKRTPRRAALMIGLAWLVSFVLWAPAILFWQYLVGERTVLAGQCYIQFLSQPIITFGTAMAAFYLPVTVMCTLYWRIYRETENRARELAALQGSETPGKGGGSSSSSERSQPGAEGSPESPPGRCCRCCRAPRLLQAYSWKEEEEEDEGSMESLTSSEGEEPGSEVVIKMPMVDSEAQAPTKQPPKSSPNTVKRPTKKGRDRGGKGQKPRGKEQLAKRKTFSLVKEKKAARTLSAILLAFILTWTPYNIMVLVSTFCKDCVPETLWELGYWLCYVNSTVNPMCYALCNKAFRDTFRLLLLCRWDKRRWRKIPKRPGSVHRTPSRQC

Chain of Muscarinic acetylcholine receptor M3 (P08483 whole entry): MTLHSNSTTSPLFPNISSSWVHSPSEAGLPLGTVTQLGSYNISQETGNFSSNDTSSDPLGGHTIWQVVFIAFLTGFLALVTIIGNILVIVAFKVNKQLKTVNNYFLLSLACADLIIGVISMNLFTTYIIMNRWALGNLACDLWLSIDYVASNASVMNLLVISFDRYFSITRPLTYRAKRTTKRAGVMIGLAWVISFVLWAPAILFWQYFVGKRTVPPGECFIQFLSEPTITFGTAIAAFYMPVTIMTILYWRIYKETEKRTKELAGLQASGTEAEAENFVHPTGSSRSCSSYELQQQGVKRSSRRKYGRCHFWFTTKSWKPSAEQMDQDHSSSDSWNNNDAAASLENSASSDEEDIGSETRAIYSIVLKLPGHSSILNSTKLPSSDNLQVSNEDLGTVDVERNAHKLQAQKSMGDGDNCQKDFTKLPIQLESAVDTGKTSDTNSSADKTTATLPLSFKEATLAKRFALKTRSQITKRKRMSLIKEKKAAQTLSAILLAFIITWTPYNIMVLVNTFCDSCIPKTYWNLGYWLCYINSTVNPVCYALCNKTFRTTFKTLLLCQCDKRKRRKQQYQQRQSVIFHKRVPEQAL

Work on `CN(CCCCCCCCN(C)CCCCCCN1CCC(OC(=O)C(c2ccccc2)c2ccccc2)CC1)CCCCCCN1CCC(OC(=O)C(c2ccccc2)c2ccccc2)CC1` yielded a Ki [1] of 2140 nM, a Ki [2] of 182 nM and a Ki [3] of 39.8 nM. The Ki [4] was 75.9 nM.

`CN(CCCCCCCCN(C)CCCCCCN1CCC2(CC1)OC(=O)C(c1ccccc1)(c1ccccc1)O2)CCCCCCN1CCC2(CC1)OC(=O)C(c1ccccc1)(c1ccccc1)O2` [SPIROTRAMINE] showed a Ki [1] of 977 nM, a Ki [2] of 631 nM and a Ki [3] of 537 nM. It also gave a Ki [4] of 13.2 nM.
